The molecules below were run against 4-aminobutyrate aminotransferase, mitochondrial (Homo sapiens) (UniProt P80404) (assay: Inhibition of GABA-AT (unknown origin)). Conditions: concentration not given here.
Parameters: concentration or dose not given beside the values

Chain of 4-aminobutyrate aminotransferase, mitochondrial (Homo sapiens) (P80404 whole entry): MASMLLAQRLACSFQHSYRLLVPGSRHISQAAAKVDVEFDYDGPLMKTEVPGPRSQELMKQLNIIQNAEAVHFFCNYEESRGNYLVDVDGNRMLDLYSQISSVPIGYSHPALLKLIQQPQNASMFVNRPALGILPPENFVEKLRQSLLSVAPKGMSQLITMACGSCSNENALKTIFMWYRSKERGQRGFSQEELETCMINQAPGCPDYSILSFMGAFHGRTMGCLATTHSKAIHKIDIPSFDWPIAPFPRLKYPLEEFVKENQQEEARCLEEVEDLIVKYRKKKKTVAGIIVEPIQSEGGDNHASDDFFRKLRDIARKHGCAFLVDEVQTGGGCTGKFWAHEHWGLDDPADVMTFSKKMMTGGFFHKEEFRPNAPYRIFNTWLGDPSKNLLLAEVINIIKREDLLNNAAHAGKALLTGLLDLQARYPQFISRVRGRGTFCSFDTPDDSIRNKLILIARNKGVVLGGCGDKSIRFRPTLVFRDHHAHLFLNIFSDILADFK

SMILES	inhibition
N/N=C/Cc1ccc(Cl)cc1Cl	59%
N/N=C/Cc1ccccc1	75.4%
N/N=C/Cc1ccc(Cl)cc1	54.2%
Cc1cccc(C/C=N/N)c1	75.4%
N/N=C/Cc1ccc(F)cc1	61.6%
COc1cccc(C/C=N/N)c1	77.6%
Cc1ccc(C/C=N/N)cc1	70.4%
COc1ccc(C/C=N/N)cc1	66.6%

Other lines, results leading:

inhibition	SMILES
56.1%	N/N=C/Cc1ccccc1Cl
33.2%	N/N=C/Cc1ccc(C(F)(F)F)cc1
76%	N/N=C/Cc1cccc(C(F)(F)F)c1
46.3%	N/N=C/Cc1ccccc1C(F)(F)F
62.9%	N/N=C/Cc1ccccc1F
74.9%	N/N=C/Cc1cccc(Cl)c1
60.1%	COc1ccccc1C/C=N/N
72.5%	N/N=C/Cc1cccc(F)c1
51.3%	Cc1ccccc1C/C=N/N
